Reference: patent US20250145566A1, “PHENETHYLAMINE DERIVATIVES, COMPOSITIONS, AND METHODS OF USE” (Cybin IRL Limited, priority 2022, published 2025)
Entries after “also recorded” stand apart in the source; their conditions may differ. Like-named read-outs stand apart in the source and are kept apart here.

How the values were obtained:
dopamine transporter (h) = molecular target: T1, dopamine transporter (h) (Homo sapiens, UniProt Q01959); test: dopamine transporter (h) binding, [3H]BTCP; details: at 10 μM; table calls these values “No Binding”
T1 construct: expressed in transfected cells; host or cells: CHO cells

Serotonin transporter = molecular target: T2, Serotonin transporter (Rattus norvegicus, UniProt P31652); test: Serotonin transporter uptake, rat brain synaptosomes; format: biochemical; details: for selectivity for blocking 5-HT reuptake relative to NE and DA, in words / selectivity for inhibiting SERT relative to DAT and NET: uptake inhibition
T2 construct: from tissue

5-HT2A (h) = molecular target: T3, 5-HT2A (h) (Homo sapiens, UniProt P28223); test: 5-HT2A (h) agonist radioligand [125I](±)DOI binding; details: at 10 μM
T3 construct: expressed in transfected cells; host or cells: HEK-293 cells

5-HT2C (h) [1] = molecular target: T4, 5-HT2C (h) (Homo sapiens, UniProt P28335); test: 5-HT2C (h) agonist radioligand [125I](±)DOI binding; details: at 10 μM
T4 construct: expressed in transfected cells; host or cells: HEK-293 cells
T4 sequence (P28335 33-458): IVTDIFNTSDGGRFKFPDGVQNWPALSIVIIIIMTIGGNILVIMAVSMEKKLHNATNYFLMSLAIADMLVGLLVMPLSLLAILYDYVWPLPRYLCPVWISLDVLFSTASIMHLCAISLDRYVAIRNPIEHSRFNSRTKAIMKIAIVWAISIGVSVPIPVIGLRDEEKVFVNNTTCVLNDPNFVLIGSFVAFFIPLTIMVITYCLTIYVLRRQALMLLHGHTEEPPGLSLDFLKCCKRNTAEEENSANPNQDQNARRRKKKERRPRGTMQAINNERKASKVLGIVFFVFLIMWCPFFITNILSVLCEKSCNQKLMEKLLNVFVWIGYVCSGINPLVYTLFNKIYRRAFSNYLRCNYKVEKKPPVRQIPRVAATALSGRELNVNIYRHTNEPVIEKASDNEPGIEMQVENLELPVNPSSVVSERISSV
Protocol: (§1) Samples were then analyzed as described above.

[2] = molecular target: Norepinephrine transporter (Homo sapiens, UniProt P23975); test: Norepinephrine transporter uptake (h); format: cell-based
5-HT2B (h) = molecular target: T5, 5-HT2B (h) (Homo sapiens, UniProt P41595); test: 5-HT2B (h) agonist radioligand [125I](±)DOI binding; details: at 10 μM
T5 construct: expressed in transfected cells; host or cells: CHO cells
Protocol: as §1

MAO-A = molecular target: T6, MAO-A (Homo sapiens, UniProt P21397); test: Recombinant human MAO-A in vitro metabolism; format: in vitro ADME; details: for half-life at 1 µM: human, recombinant human MAO-A
T6 construct: purchased XenoTech (first series); Corning (second series) Corning 456283
T6 sequence (P21397 1-527): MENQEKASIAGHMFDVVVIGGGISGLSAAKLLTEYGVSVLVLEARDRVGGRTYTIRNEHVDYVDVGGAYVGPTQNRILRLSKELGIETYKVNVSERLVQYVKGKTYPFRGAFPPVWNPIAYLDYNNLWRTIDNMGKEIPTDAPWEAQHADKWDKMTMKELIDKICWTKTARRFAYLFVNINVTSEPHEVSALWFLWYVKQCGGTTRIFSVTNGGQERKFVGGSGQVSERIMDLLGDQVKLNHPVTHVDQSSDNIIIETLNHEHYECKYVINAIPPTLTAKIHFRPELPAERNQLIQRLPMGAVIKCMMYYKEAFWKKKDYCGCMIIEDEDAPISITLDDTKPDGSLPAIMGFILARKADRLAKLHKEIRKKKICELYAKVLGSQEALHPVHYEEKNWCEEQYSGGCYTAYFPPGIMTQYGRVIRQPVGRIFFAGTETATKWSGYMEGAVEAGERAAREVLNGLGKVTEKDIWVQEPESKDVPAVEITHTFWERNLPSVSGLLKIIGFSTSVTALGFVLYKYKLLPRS
Protocol: Recombinant human MAO-A. hrMAO-A and MAO control were purchased from XenoTech. The reaction mixture was prepared as described in Table 11. The test compound was added into the reaction mixture at a final concentration of 1 μM. The positive control kynuramine (25 μM) was run simultaneously with the test compound in a separate reaction. The reaction mixture (without test compounds or kynuramine) was equilibrated in a shaking water bath at 37° C. for 5 minutes. The reaction was initiated by the addition of the test compound or kynuramine, and the mixture was incubated in a shaking water bath at 37° C. Aliquots (150 μL) of the test compound reaction mixture were withdrawn at 0, 5, 10, 20, 30, 60, and for some assays at 120 minutes. Aliquots (150 μL) of the positive control reaction mixture were withdrawn at 0 and 30 minutes. Test compound and kynuramine samples were immediately combined with 150 μL of ice-cold 100% acetonitrile containing 0.1% formic acid and internal standard (0.2 μM metoprolol) to terminate the reaction. The samples were then mixed and centrifuged to precipitate proteins. All samples were assayed by LC-MS/MS. The peak area response ratio (PARR) of analyte to internal standard at each time point was compared to the PARR at time 0 to determine the percent remaining at each time point. Half-lives were calculated using GraphPad software, fitting to a single-phase exponential decay equation.
In a different series of reactions using human MAO-A and MAO-B, a 10 mM stock solution of the test compound was prepared in DMSO. From this stock solution, an intermediate stock solution of 1 mM was prepared by diluting the compound in DMSO and from this intermediate stock solution, a working solution of 0.30 mM was prepared by diluting the compound in ACN:Water (50:50) as cocktail of 2 compounds (30 μL each compound in 40 μL diluent for 100 μL). Following this, a master mix of 0.1 M potassium phosphate buffer and test compound mixture i.e., the non-deuterated and the deuterated analog, were prepared to achieve final drug concentration of 1 μM (0.2% DMSO) for the required number of reactions. The aforementioned master mix was pre-incubated at 37° C. for 5 min. To this master mix, MAO-A (final protein conc. 0.1 mg/mL; Corning Cat #456283; Lot #1173003) or MAO-B (final protein conc. 0.1 mg/mL; Corning Cat #456284; Lot #0318001) was added to initiate the reaction. The samples were then incubated at 37° C. for the desired time points. At each time point (0, 5, 15, 30, 45, 60), 40 μL of the samples were withdrawn and reactions were stopped using 200 μL chilled ACN containing 0.1% formic acid and internal standard Carbamazepine (10 ng/mL). The samples were centrifuged, and the supernatant was analyzed by LC-MS/MS. The percent compound remaining at each time point was calculated with respect to that of the 0 min sample. The data were then analyzed to calculate half-life and intrinsic clearance (CLint). Blank samples were prepared using DMSO (without the test compound).

[3] = molecular target: T7, norepinephrine transporter (h) (Homo sapiens, UniProt P23975); test: norepinephrine transporter (h) binding, [3H]nisoxetine; details: at 10 μM; table calls these values “No Binding”
T7 construct: expressed in transfected cells; host or cells: CHO cells

5-HT2C (h) [4] = molecular target: T4, 5-HT2C (h); test: 5-HT2C (h) agonist effect, IP1 HTRF functional assay; format: cell-based; details: for agonist efficacy at 5-HT2C, in words: EMAX relative to 5-HT
[5] = human recombinant MAO-A, test compound 1 μM, read-out: MAO-A t1/2

Sequence of Norepinephrine transporter (P23975 whole entry): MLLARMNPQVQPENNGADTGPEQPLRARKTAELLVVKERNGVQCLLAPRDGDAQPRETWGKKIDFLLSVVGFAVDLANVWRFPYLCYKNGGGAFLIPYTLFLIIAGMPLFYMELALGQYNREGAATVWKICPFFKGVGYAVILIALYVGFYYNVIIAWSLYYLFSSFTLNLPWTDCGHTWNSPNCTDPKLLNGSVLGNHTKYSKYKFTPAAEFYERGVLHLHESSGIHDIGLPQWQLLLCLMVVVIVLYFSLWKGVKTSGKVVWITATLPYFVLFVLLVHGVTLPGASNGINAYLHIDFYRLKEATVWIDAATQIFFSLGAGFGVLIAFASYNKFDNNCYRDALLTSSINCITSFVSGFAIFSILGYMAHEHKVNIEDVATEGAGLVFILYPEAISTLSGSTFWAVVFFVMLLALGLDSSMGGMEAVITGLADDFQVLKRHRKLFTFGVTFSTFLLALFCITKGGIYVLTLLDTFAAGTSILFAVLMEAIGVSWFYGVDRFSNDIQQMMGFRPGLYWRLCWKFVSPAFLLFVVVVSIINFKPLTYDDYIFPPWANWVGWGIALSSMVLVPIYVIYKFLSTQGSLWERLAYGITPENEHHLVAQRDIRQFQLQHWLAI
T2 sequence (P31652 whole entry): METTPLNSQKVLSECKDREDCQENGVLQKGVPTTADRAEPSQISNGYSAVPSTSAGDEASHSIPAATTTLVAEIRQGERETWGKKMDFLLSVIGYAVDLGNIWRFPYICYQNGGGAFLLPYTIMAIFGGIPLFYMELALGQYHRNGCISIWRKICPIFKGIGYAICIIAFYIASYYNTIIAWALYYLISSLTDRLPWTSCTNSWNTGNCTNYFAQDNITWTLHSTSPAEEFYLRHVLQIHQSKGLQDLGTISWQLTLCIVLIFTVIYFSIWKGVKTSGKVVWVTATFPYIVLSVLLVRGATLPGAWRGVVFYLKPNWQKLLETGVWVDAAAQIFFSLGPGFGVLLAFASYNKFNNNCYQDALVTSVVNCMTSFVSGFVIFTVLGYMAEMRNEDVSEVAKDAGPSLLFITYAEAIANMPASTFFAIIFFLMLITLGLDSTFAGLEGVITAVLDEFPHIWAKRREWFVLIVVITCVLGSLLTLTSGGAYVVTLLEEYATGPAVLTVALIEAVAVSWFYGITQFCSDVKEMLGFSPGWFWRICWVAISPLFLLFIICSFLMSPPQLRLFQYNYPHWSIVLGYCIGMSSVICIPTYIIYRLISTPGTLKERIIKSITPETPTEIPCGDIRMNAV
T5 sequence (P41595 whole entry): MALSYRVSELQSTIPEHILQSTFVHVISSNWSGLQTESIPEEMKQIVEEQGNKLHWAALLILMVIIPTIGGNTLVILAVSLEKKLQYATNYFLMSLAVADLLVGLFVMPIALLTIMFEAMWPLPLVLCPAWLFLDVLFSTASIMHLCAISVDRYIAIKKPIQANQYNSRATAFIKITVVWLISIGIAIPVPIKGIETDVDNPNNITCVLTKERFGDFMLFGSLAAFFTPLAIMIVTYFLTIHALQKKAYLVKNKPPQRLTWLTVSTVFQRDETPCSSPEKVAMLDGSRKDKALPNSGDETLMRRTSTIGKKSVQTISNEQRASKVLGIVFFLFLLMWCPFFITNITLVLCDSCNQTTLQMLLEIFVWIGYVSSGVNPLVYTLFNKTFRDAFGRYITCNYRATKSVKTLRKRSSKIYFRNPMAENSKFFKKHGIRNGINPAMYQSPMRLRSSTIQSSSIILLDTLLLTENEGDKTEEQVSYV
T1 sequence (Q01959 whole entry): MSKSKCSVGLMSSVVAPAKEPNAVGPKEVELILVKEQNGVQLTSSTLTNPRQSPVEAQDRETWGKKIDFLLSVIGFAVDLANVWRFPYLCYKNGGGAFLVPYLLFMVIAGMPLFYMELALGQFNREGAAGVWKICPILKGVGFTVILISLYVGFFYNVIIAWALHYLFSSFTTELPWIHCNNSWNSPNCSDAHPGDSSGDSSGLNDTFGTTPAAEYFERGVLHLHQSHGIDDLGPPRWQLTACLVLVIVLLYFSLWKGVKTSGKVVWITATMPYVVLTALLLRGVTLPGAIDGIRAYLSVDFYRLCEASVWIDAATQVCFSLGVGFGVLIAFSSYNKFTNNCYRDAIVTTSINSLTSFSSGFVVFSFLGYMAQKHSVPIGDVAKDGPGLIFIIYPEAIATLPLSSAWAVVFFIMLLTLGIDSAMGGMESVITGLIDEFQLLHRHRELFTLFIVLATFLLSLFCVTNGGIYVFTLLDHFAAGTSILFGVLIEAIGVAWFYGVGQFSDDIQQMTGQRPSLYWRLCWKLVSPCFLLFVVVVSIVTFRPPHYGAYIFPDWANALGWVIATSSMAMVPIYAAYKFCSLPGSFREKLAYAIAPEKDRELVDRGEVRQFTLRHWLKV
T7 sequence (P23975 whole entry): as the sequence (P23975 whole entry) above
T3 sequence (P28223 whole entry): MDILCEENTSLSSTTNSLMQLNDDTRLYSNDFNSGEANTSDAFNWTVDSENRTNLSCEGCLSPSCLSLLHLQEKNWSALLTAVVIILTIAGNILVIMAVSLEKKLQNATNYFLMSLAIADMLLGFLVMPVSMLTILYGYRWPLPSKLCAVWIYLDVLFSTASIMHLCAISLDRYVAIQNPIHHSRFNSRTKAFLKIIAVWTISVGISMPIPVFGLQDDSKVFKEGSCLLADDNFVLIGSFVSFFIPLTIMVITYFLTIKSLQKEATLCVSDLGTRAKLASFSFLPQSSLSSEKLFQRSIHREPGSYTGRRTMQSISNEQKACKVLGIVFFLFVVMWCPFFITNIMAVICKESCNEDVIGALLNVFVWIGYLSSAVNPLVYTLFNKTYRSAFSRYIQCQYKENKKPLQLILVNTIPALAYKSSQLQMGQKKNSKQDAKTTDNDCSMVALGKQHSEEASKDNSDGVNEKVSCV

## NCCc1ccc2c(c1)OCS2 [II-14, 2-(benzo[d][1,3]oxathiol-6-yl)ethan-1-amine]
Dopamine transporter (h)
  Binding DAT (antagonist radioligand), % competition: 26% competition
Serotonin transporter
  IC50: ~500 nM
  selectivity for blocking 5-HT reuptake relative to NE and DA, in words: selectivity (higher potency) for blocking 5-HT reuptake relative to NE and DA
  selectivity for inhibiting SERT relative to DAT and NET: ~5 fold
Serotonin transporter; from 3 to 100 μM
  Function SERT, inhibition of SERT: 98.5-107.9%,
Serotonin transporter; tested at 1, 3, 10, 100 μM
  Function SERT (blocking reuptake of 5-HT), efficacy in words: Full efficacy,
  efficacy for blocking 5-HT uptake through SERT, in words: full efficacy
5-HT2A (h)
  Binding 5-HT2A (agonist radioligand), % competition: 93.9% competition
5-HT2C (h) [1]
  Binding 5-HT2C (agonist radioligand), % competition: 94.4% competition
[2]
  IC50: ~5000 nM
[2]; at 100 μM, read-out: Function NET, inhibition of NET
  inhibition at 100 µM: 92.9%
[2]; tested at 1, 10, 100 μM
  Function NET (blocking reuptake of NE), efficacy in words: Near full efficacy,
  efficacy for blocking NE uptake through NET, in words: full efficacy
5-HT2B (h)
  Binding 5-HT2B (agonist radioligand), % competition: 100.3% competition
MAO-A; 1 μM test compound, read-out: half-life, MAO-A metabolism
  half-life at 1 µM: ≤ 8 min
MAO-A; [5]
  half-life at 1 µM: 4.09 min
[3]
  Binding NET (antagonist radioligand), % competition: 40.5% competition
5-HT2C (h) [4]
  EC50: < 750 nM
5-HT2C (h) [4]; at 3 μM, relative to 5-HT, read-out: Function 5-HT2C EMAX
  Emax at 3 µM: 107%
5-HT2C (h) [4]; tested at 1, 3, 10, 100 μM
  Function 5-HT2C (Gq-IP1, efficacy relative to 5-HT), agonist type: Full agonist -
  agonist efficacy at 5-HT2C, in words: nearly full or full agonist; also recorded: full agonists

## CC(N)Cc1ccc2c(c1)OCS2 (stereo not shown) [II-16, 1-(benzo[d][1,3]oxathiol-6-yl)propan-2-amine]
Serotonin transporter; tested at 1, 3, 10, 100 μM
  efficacy for blocking 5-HT uptake through SERT, in words: full efficacy
Serotonin transporter
  selectivity for blocking 5-HT reuptake relative to NE and DA, in words: selectivity (higher potency) for blocking 5-HT reuptake relative to NE and DA
  selectivity for inhibiting SERT relative to DAT and NET: ~5 fold
[2]; tested at 1, 10, 100 μM
  efficacy for blocking NE uptake through NET, in words: full efficacy
MAO-A; [5]
  half-life at 1 µM: > 120 min
MAO-A; result in words
  stability in the presence of MAO-A: stable
5-HT2C (h) [4]; tested at 1, 3, 10, 100 μM
  agonist efficacy at 5-HT2C, in words: nearly full or full agonist; also recorded: full agonists
